# Experimental data from patent US20090005406A1, “Cancer Treatment Method” (SMITHKLINE BEECHAM CORPORATION, priority 2005, published 2009).
# Marks after values point to notes of the source that are not given here.
# Key:
# Solid Tumors = assay: Clinical study of orally administered pazopanib in patients with solid tumors (clinical response); type: in vivo; set-up: key to Response: SD stable disease;; MR mixed response;; PR partial remission
# Experimental: (§1) Sixty-three patients (pts) with cancer were treated with pazopanib three times a week, once (qd) or twice (bid) daily in a dose escalation scheme. The amount and frequency of administration of pazopanib to a representative number of those pts is summarized below in Table 1. Pts were evaluated monthly and treated until disease progression or intolerable side effects. Clinical response was determined every 8 wks. Safety and pharmacodynamics were separately assessed.
# (§2) Preliminary representative patient data are shown below in Table 2.
# [1] = Peak plasma concentration of pazopanib in the clinical study; type: in vivo; conditions: oral dosing, regardless of tumor type
# Experimental: as §1, §2
# [2] = patient with Adeno lung, 200-800 mg qd, oral
# [3] = patient with Chondrosarcoma, 400-800 mg qd, oral
# [4] = patient with Chondrosarcoma, 2000-800 mg qd, oral
# [5] = patient with GIST, 600-800 mg qd, oral
# [6] = patient with Hurthle Cell tumor, 50-800 mg qd, oral
# [7] = patient with Leiomyosarcoma, 50-800 mg qd, oral
# [8] = patient with Melanoma, 50-400 mg qd, oral
# [9] = patient with Neuroendocrine tumor, 300 mg bid, oral
# [10] = patient with Rectal carcinoid, 800 mg qd, oral
# [11] = patient with Renal cell carcinoma, 800 mg qd, oral, patient withdrawn from study
# [12] = patient with Renal cell carcinoma, 2000 mg qd, oral
# [13] = patient with Renal cell carcinoma, 1400-800 mg qd, oral
structure (smiles),measurement,setting,value
"Cc1ccc(Nc2nccc(N(C)c3ccc4c(C)n(C)nc4c3)n2)cc1S(N)(=O)=O [pazopanib, 5-({4-[(2,3-dimethyl-2H-indazol-6-yl)(methyl)amino]pyrimidin-2-yl}amino)-2-methylbenzenesulfonamide]",Duration on pazopanib (weeks),Solid Tumors; [2],55 weeks
same,Response,Solid Tumors; [2],SD
same,Duration on pazopanib (weeks),Solid Tumors; [3],31 weeks
same,Response,Solid Tumors; [3],SD
same,Duration on pazopanib (weeks),Solid Tumors; [4],90+ weeks
same,Response,Solid Tumors; [4],SD (MR)
same,Duration on pazopanib (weeks),Solid Tumors; [5],60 weeks
same,Response,Solid Tumors; [5],SD
same,Duration on pazopanib (weeks),Solid Tumors; [6],101 weeks
same,Response,Solid Tumors; [6],SD (MR)
same,Duration on pazopanib (weeks),Solid Tumors; [7],34 weeks
same,Response,Solid Tumors; [7],SD
same,Duration on pazopanib (weeks),Solid Tumors; [8],36 weeks
same,Response,Solid Tumors; [8],SD
same,Duration on pazopanib (weeks),Solid Tumors; [9],50+ weeks
same,Response,Solid Tumors; [9],MR
same,Duration on pazopanib (weeks),"Solid Tumors; patient with Neuroendocrine tumor, 1000 mg qd, oral",38 weeks
same,Response,"Solid Tumors; patient with Neuroendocrine tumor, 1000 mg qd, oral, preliminary data not yet confirmed",PR^#
same,Duration on pazopanib (weeks),Solid Tumors; [10],40+ weeks
same,Response,Solid Tumors; [10],SD
same,Response,"Solid Tumors; patient with Renal cell carcinoma, 300 mg bid, oral (40+ weeks patient)",MR
same,Response,"Solid Tumors; patient with Renal cell carcinoma, 300 mg bid, oral (52+ weeks patient)",PR
same,Duration on pazopanib (weeks),"Solid Tumors; patient with Renal cell carcinoma, 300 mg bid, oral, response MR",40+ weeks
same,Duration on pazopanib (weeks),"Solid Tumors; patient with Renal cell carcinoma, 300 mg bid, oral, response PR",52+ weeks
same,Response,"Solid Tumors; patient with Renal cell carcinoma, 800 mg qd, oral (12+ weeks patient)",SD
same,Duration on pazopanib (weeks),Solid Tumors; [11],19 weeks
same,Response,Solid Tumors; [11],SD (MR)*
same,Duration on pazopanib (weeks),"Solid Tumors; patient with Renal cell carcinoma, 800 mg qd, oral, response SD",12+ weeks
same,Duration on pazopanib (weeks),Solid Tumors; [12],24 weeks
same,Response,Solid Tumors; [12],SD (MR)
same,Duration on pazopanib (weeks),Solid Tumors; [13],40 weeks
same,Response,Solid Tumors; [13],SD (MR)
same,peak plasma concentrations of pazopanib in patients that demonstrated a clinical benefit,[1],≥ 40 µM
